Assay results from patent US20250304566A1, “CRYSTALLINE FORMS OF (5S)-3-[3-(3-CHLORO-2-FLUOROPHENOXY)-6-METHYLPYRIDAZIN-4-YL]-5-(2-CHLORO-4-METHYLBENZYL)-5,6-DIHYDRO-4H-1,2,4-OXADIAZINE” (priority 2022, published 2025).
Blank lines part the entries; values can stand above or below the molecule they belong to.

Legend:
Format in all cases: physicochemical
[1] = Transition temperature between polymorphic forms A and B (temperature-depending XRPD); settings: for phase change temperature: temperature-depending XRPD
Experimental: To obtain crystals of polymorphic form A, a temperature-depending X-ray powder diffraction (XRPD) experiment was performed, in which recrystallization was allowed at different temperatures.

[2] = Slurry experiment (polymorph obtained, XRPD); settings: for Mod. obtained: 8 days
Experimental: Compound of formula (I) was suspended in the respective solvent and stirred at 0° C., 40° C. (Mya4 stirrer station at 250 u/min) and 80° C. After three to eight days, an additional amount of solvent was added to the suspensions. In two experiments additional substance were added after four days. After eight days the suspensions were dried at ambient conditions.
The obtained crystals were isolated and analyzed by X-ray powder diffraction (XRPD) spectrometry, DSC and TGA.

[3] = Measurement of Log P values by HPLC on reversed phase columns (EEC directive 79/831 Annex V.A8); settings: reversed phase HPLC column, acidic range, 0.1% formic acid in water and acetonitrile
Experimental: Measurement of Log P values Measurement of Log P values as provided herein was performed according to EEC directive 79/831 Annex V.A8 by HPLC (High Performance Liquid Chromatography) on reversed phase columns with method determined by measurement of LC-UV, in an acidic range, with 0.1% formic acid in water and acetonitrile as eluent (linear gradient from 10% acetonitrile to 95% acetonitrile). Calibration was done with straight-chain alkan2-ones (with 3 to 16 carbon atoms) with known Log P values (measurement of Log P values using retention times with linear interpolation between successive alkanones). Lambda-max-values were determined using UV-spectra from 200 nm to 400 nm and the peak values of the chromatographic signals

thermodynamic stability ([1]; below the transition temperatures (49° C. to 66° C.)): thermodynamically stable polymorph | Mod. obtained ([2]; Exp. No. 1: Mod. B used, CH3CN, 0 °C): Mod. B | Mod. obtained ([2]; Exp. No. 2: Mod. B used, CH3CN, 40 °C): Mod. B | Mod. obtained ([2]; Exp. No. 3: Mod. B used, CH3CN/water, 80 °C): Mod. B | Mod. obtained ([2]; Exp. No. 4: Mod. B used, Ethanol/water (1:1), 0 °C): Mod. B | Mod. obtained ([2]; Exp. No. 5: Mod. B used, Ethanol/water (1:1), 40 °C): Mod. B | Mod. obtained ([2]; Exp. No. 6: Mod. B used, Ethanol/water (1:1), 80 °C): Mod. B
Compound: Cc1ccc(C[C@H]2CON=C(c3cc(C)nnc3Oc3cccc(Cl)c3F)N2)c(Cl)c1 [polymorphic form B, (5S)-3-[3-(3-chloro-2-fluorophenoxy)-6-methylpyridazin-4-yl]-5-(2-chloro-4-methylbenzyl)-5,6-dihydro-4H-1,2,4-oxadiazine]
stability in slurry experiments: recrystallization events ([2]; above the transition temperature range over an extended period of time): No recrystallization events were observed

phase change temperature ([1]; on cooling): 40 °C | phase change temperature ([1]; on heating): 60 °C
Compound: Cc1ccc(C[C@H]2CON=C(c3cc(C)nnc3Oc3cccc(Cl)c3F)N2)c(Cl)c1 [polymorphic form A, (5S)-3-[3-(3-chloro-2-fluorophenoxy)-6-methylpyridazin-4-yl]-5-(2-chloro-4-methylbenzyl)-5,6-dihydro-4H-1,2,4-oxadiazine]
thermodynamic stability ([1]; at lower temperatures): very fast transition to polymorphic form B

chromatographic logP [3]: 3.88
Compound: Cc1ccc(C[C@H]2CON=C(c3cc(C)nnc3Oc3cccc(Cl)c3F)N2)c(Cl)c1 [compound of formula (I), (5S)-3-[3-(3-chloro-2-fluorophenoxy)-6-methylpyridazin-4-yl]-5-(2-chloro-4-methylbenzyl)-5,6-dihydro-4H-1,2,4-oxadiazine]
